The record followed here is patent US10570129B2 (Zoetis Services LLC, priority 2015, dated 2020).

Experiment [1] relates to Haemonchus contortus L3. Put plainly: microbe, parasite or virus in culture. It is filed as cell-based. The conditions noted are these: Haemonchus contortus, 96 h, read-out: HcL3 Minimal Effective Concentration (MEC).
Experiment [2] concerns D. immitis microfilariae. Put plainly: Dirofilaria immitis, microfilariae (DiMF) in vitro motility assay. It is filed as cell-based. The conditions noted are these: Dirofilaria immitis, 72 h, read-out: DiMF minimally effective dose (MEC).

With `N#Cc1ccc(/C=C/CN2CCc3c(c4ccc(Br)cc4n3C(=O)NCc3ccnc(Cl)c3)C2)cc1` [Example 441, (E)-7-bromo-N-((2-chloropyridin-4-yl)methyl)-2-(3-(4-cyanophenyl)allyl)-1,2,3,4-tetrahydro-5H-pyrido[4,3-b]indole-5-carboxamide], the minimal effective concentration was greater than 100 µM in experiment [1] and 4.4 µM in experiment [2].

In the case of `N#Cc1ccc(/C=C/CN2CCc3c(c4c(Br)cccc4n3C(=O)NCc3ccnc(Cl)c3)C2)cc1` [Example 442, (E)-9-bromo-N-((2-chloropyridin-4-yl)methyl)-2-(3-(4-cyanophenyl)allyl)-1,2,3,4-tetrahydro-5H-pyrido[4,3-b]indole-5-carboxamide], the minimal effective concentration in experiment [1] and in experiment [2] was 10 µM in each case.

`O=C(NCc1ccnc(Cl)c1)n1c2c(c3ccc(Br)cc31)CN(C/C=C/c1ccc(Cl)cc1)CC2` [Example 443, (E)-7-bromo-2-(3-(4-chlorophenyl)allyl)-N-((2-chloropyridin-4-yl)methyl)-1,2,3,4-tetrahydro-5H-pyrido[4,3-b]indole-5-carboxamide]: the minimal effective concentration in experiment [1] was determined as 0.5 µM; in experiment [2], 3.3 µM.

For `CSc1ccc2c(c1)c1c(n2C(=O)NCc2ccnc(Cl)c2)CCN(C/C=C/c2ccc(Cl)c(F)c2)C1` [Example 445, (E)-2-(3-(4-chloro-3-fluorophenyl)allyl)-N-((2-chloropyridin-4-yl)methyl)-8-(methylthio)-1,2,3,4-tetrahydro-5H-pyrido[4,3-b]indole-5-carboxamide], the minimal effective concentration amounted to 0.5 µM in experiment [1] and 33 µM in experiment [2].

As for `CSc1ccc2c(c1)c1c(n2C(=O)NCc2ccnc(Cl)c2)CCN(C/C=C/c2ccc(F)c(F)c2)C1` [Example 446, (E)-N-((2-chloropyridin-4-yl)methyl)-2-(3-(3,4-difluorophenyl)allyl)-8-(methylthio)-1,2,3,4-tetrahydro-5H-pyrido[4,3-b]indole-5-carboxamide], the figures for the minimal effective concentration in experiment [1] and in experiment [2] were 0.5 µM and 3.3 µM, respectively.

As for `CSc1ccc2c(c1)c1c(n2C(=O)NCc2ccnc(Cl)c2)CCN(C/C=C/c2ccc(Cl)cc2)C1` [Example 447, (E)-2-(3-(4-chlorophenyl)allyl)-N-((2-chloropyridin-4-yl)methyl)-8-(methylthio)-1,2,3,4-tetrahydro-5H-pyrido[4,3-b]indole-5-carboxamide], the minimal effective concentration is 0.5 µM in experiment [1] and 3.3 µM in experiment [2].

As for `CSc1ccc2c(c1)c1c(n2C(=O)NCc2ccnc(Cl)c2)CCN(C/C=C/c2ccc(F)cc2)C1` [Example 448, (E)-N-((2-chloropyridin-4-yl)methyl)-2-(3-(4-fluorophenyl)allyl)-8-(methylthio)-1,2,3,4-tetrahydro-5H-pyrido[4,3-b]indole-5-carboxamide], the minimal effective concentration was determined as 1.3 µM in experiment [1] and 3.3 µM in experiment [2].

As to `N#Cc1ccc2c(c1)c1c(n2C(=O)NCc2ccnc(O)c2)CCN(C/C=C/c2ccc(Cl)c(Cl)c2)C1` [Example 449, (E)-8-cyano-2-(3-(3,4-dichlorophenyl)allyl)-N-((2-hydroxypyridin-4-yl)methyl)-1,2,3,4-tetrahydro-5H-pyrido[4,3-b]indole-5-carboxamide], the minimal effective concentration in experiment [1] and in experiment [2] was greater than 100 µM throughout.

As for `N#Cc1ccc2c(c1)c1c(n2C(=O)NCc2ccnc(O)c2)CCN(C/C=C/c2cc(F)c(Cl)c(F)c2)C1` [Example 450, (E)-2-(3-(4-chloro-3,5-difluorophenyl)allyl)-8-cyano-N-((2-hydroxypyridin-4-yl)methyl)-1,2,3,4-tetrahydro-5H-pyrido[4,3-b]indole-5-carboxamide], the minimal effective concentration in experiment [1] is 0.5 µM; in experiment [2], 100 µM.

As for `N#Cc1ccc2c(c1)c1c(n2C(=O)NCc2ccnc(O)c2)CCN(C/C=C/c2ccc(Br)cc2F)C1` [Example 451, (E)-2-(3-(4-bromo-2-fluorophenyl)allyl)-8-cyano-N-((2-hydroxypyridin-4-yl)methyl)-1,2,3,4-tetrahydro-5H-pyrido[4,3-b]indole-5-carboxamide], the minimal effective concentration in experiment [1] is greater than 100 µM; in experiment [2], 3.3 µM.

For `N#Cc1ccc2c(c1)c1c(n2C(=O)NCc2ccnc(O)c2)CCN(C/C=C/c2cc(Cl)c(F)c(Cl)c2)C1` [Example 452, (E)-8-cyano-2-(3-(3,5-dichloro-4-fluorophenyl)allyl)-N-((2-hydroxypyridin-4-yl)methyl)-1,2,3,4-tetrahydro-5H-pyrido[4,3-b]indole-5-carboxamide], the minimal effective concentration in experiment [1] and in experiment [2] was greater than 100 µM in each case.

Turning to `O=C(NCc1ccnc(O)c1)n1c2c(c3cc(C(F)(F)F)ccc31)CN(C/C=C/c1ccc(F)cc1F)CC2` [Example 453, (E)-2-(3-(2,4-difluorophenyl)allyl)-N-((2-hydroxypyridin-4-yl)methyl)-8-(trifluoromethyl)-1,2,3,4-tetrahydro-5H-pyrido[4,3-b]indole-5-carboxamide], the minimal effective concentration in experiment [1] was greater than 100 µM; in experiment [2] it was 10 µM.

As to `N#Cc1ccc(/C=C/CN2CCc3c(c4cc(C(F)(F)F)ccc4n3C(=O)NCc3ccnc(O)c3)C2)cc1` [Example 454, (E)-2-(3-(4-cyanophenyl)allyl)-N-((2-hydroxypyridin-4-yl)methyl)-8-(trifluoromethyl)-1,2,3,4-tetrahydro-5H-pyrido[4,3-b]indole-5-carboxamide], the minimal effective concentration in experiment [1] and in experiment [2] was greater than 100 µM each time.

Regarding `CS(=O)(=O)c1ccc2c(c1)c1c(n2C(=O)NCc2ccnc(Cl)c2)CCN(C/C=C/c2ccc(Cl)c(F)c2)C1` [Example 455, (E)-2-(3-(4-chloro-3-fluorophenyl)allyl)-N-((2-chloropyridin-4-yl)methyl)-8-(methylsulfonyl)-1,2,3,4-tetrahydro-5H-pyrido[4,3-b]indole-5-carboxamide], the results for the minimal effective concentration in experiment [1] and in experiment [2] were 0.7 µM and 5.7 µM, respectively.

For the molecule `CS(=O)(=O)c1ccc2c(c1)c1c(n2C(=O)NCc2ccnc(Cl)c2)CCN(C/C=C/c2ccc(F)cc2F)C1` [Example 456, (E)-N-((2-chloropyridin-4-yl)methyl)-2-(3-(2,4-difluorophenyl)allyl)-8-(methylsulfonyl)-1,2,3,4-tetrahydro-5H-pyrido[4,3-b]indole-5-carboxamide], the figures for the minimal effective concentration in experiment [1] and in experiment [2] were 1.3 µM and 10 µM, respectively.

As for `CS(=O)(=O)c1ccc2c(c1)c1c(n2C(=O)NCc2ccnc(Cl)c2)CCN(C/C=C/c2ccc(Cl)cc2)C1` [Example 457, (E)-2-(3-(4-chlorophenyl)allyl)-N-((2-chloropyridin-4-yl)methyl)-8-(methylsulfonyl)-1,2,3,4-tetrahydro-5H-pyrido[4,3-b]indole-5-carboxamide], the minimal effective concentration came out at 1 µM in experiment [1] and 10 µM in experiment [2].

On to `CS(=O)(=O)c1ccc2c(c1)c1c(n2C(=O)NCc2ccnc(Cl)c2)CCN(C/C=C/c2ccc(Cl)c(Cl)c2)C1` [Example 458, (E)-N-((2-chloropyridin-4-yl)methyl)-2-(3-(3,4-dichlorophenyl)allyl)-8-(methylsulfonyl)-1,2,3,4-tetrahydro-5H-pyrido[4,3-b]indole-5-carboxamide], for which the minimal effective concentration amounted to 5.7 µM in experiment [1] and 3.3 µM in experiment [2].

As to `N#Cc1ccc(-c2ccc3c(c2)c2c(n3C(=O)NCc3ccnc(F)c3)CCN(C/C=C/c3ccc(Cl)cc3)C2)cn1` [Example 460, (E)-2-(3-(4-chlorophenyl)allyl)-8-(6-cyanopyridin-3-yl)-N-((2-fluoropyridin-4-yl)methyl)-1,2,3,4-tetrahydro-5H-pyrido[4,3-b]indole-5-carboxamide], the minimal effective concentration was greater than 100 µM in experiment [1] and 57.4 µM in experiment [2].

As for `O=C(NCc1ccnc(F)c1)n1c2c(c3cc(-c4ccc(Cl)cc4)ccc31)CN(C/C=C/c1ccc(Cl)cc1)CC2` [Example 461, (E)-8-(4-chlorophenyl)-2-(3-(4-chlorophenyl)allyl)-N-((2-fluoropyridin-4-yl)methyl)-1,2,3,4-tetrahydro-5H-pyrido[4,3-b]indole-5-carboxamide], the minimal effective concentration in experiment [1] is 33 µM; in experiment [2], greater than 100 µM.

Consider `O=C(NCc1ccnc(F)c1)n1c2c(c3cc(-c4cccc(Cl)c4)ccc31)CN(C/C=C/c1ccc(Cl)cc1)CC2` [Example 462, (E)-8-(3-chlorophenyl)-2-(3-(4-chlorophenyl)allyl)-N-((2-fluoropyridin-4-yl)methyl)-1,2,3,4-tetrahydro-5H-pyrido[4,3-b]indole-5-carboxamide], for which the minimal effective concentration in experiment [1] and in experiment [2] was greater than 100 µM each time.

As for `O=C(NCc1ccnc(F)c1)n1c2c(c3cc(-c4ccc(F)cc4)ccc31)CN(C/C=C/c1ccc(Cl)cc1)CC2` [Example 463, (E)-2-(3-(4-chlorophenyl)allyl)-8-(4-fluorophenyl)-N-((2-fluoropyridin-4-yl)methyl)-1,2,3,4-tetrahydro-5H-pyrido[4,3-b]indole-5-carboxamide], the minimal effective concentration in experiment [1] and in experiment [2] was greater than 100 µM throughout.

`NC(=O)c1ccc2c3c(n(C(=O)NCc4ccnc(Cl)c4)c2c1)CCN(C/C=C/c1ccc(Cl)cc1)C3` [Example 464, (E)-2-(3-(4-chlorophenyl)allyl)-N^5-((2-chloropyridin-4-yl)methyl)-1,2,3,4-tetrahydro-5H-pyrido[4,3-b]indole-5,7-dicarboxamide]: the values for the minimal effective concentration in experiment [1] and in experiment [2] were 3.3 µM and 7.6 µM, respectively.

Regarding `NC(=O)c1ccc2c3c(n(C(=O)NCc4ccnc(Cl)c4)c2c1)CCN(C/C=C/c1ccc(Cl)c(F)c1)C3` [Example 465, (E)-2-(3-(4-chloro-3-fluorophenyl)allyl)-N^5-((2-chloropyridin-4-yl)methyl)-1,2,3,4-tetrahydro-5H-pyrido[4,3-b]indole-5,7-dicarboxamide], the figures for the minimal effective concentration in experiment [1] and in experiment [2] were 3.3 µM and 10 µM, respectively.
